According to paper PMC2635027 (The Journal of Biological Chemistry, 2009):

Experiments:
[1] = system: BHK21-tTA/anti-CHC cell line; format: cell-based, hamster; conditions: +tet control cells; peptides 10 μM, Tf 10 μg/ml; 37 °C; confocal microscopy
BHK21 cells = format: cell-based, hamster; conditions: BHK21 cells at 4 °C; 10 μM; confocal microscopy
[2] = system: BHK21-tTA/anti-CHC cell line; conditions: absence of tetracycline for 2 days; cited from earlier work

Row | Substance | vesicular (endocytic) uptake, in words [1] | intracellular fluorescently labeled vesicles, in words (BHK21 cells) | inhibition of transferrin internalization [2] [%]
1 | YARAARQARA [PTD4, TAMRA-PTD4 (YARAARQARA)] | presence of PTD4-containing vesicles | not observed | 
2 | transferrin: transferrin conjugated to Alexa Fluor 633, marker for clathrin-dependent endocytosis | internalized at high rates |  | 90
